Drawing on PubChem BioAssay AID651886 (Southern Research Specialized Biocontainment Screening …, 2012), this text covers log virus titer change for 16 molecules.

Structures are written as SMILES. Active and inactive are the calls of the source. No rule for the calls is given here.

The subject of this test is VEEV TC-83 infected cells, virus titer reduction. The test can be described thus: Secondary screen, VEEV TC 83 strain infected cells, log virus titer change, 5 µm (AID 651886). Particulars: at 5 µM; active compounds read low.
As to `CCN1CCN(Cc2nc3ccc([N+](=O)[O-])cc3c(=O)n2-c2cccc(F)c2)CC1`, the log virus titer change was -7.11.

For `CCN1CCN(Cc2nc3ccc([N+](=O)[O-])cc3c(=O)n2-c2ccccc2F)CC1`, the log virus titer change was -2.06.

Consider `CCN1CCN(Cc2nc3ccc(C#N)cc3c(=O)n2-c2ccccc2)CC1`, for which the log virus titer change was -1.65.

On to `CCN1CCN(Cc2nc3ccc([N+](=O)[O-])cc3c(=O)n2-c2ccccc2)CC1`, for which the log virus titer change is below -7.54.

Take `CCN1CCN(Cc2nc3ccc([N+](=O)[O-])cc3c(=O)n2-c2ccc(F)cc2)CC1`: the log virus titer change was -5.88.

With `COc1ccc(NC(=O)c2cc([N+](=O)[O-])ccc2N=C2CN(C)CCN2C)cc1`, the log virus titer change is below -7.2.

Turning to `O=c1c2cc([N+](=O)[O-])ccc2nc(CN2CCNCC2)n1-c1ccccc1`, the log virus titer change is below -7.76.

As to `CCN1CCN(Cc2nc3ccc(I)cc3c(=O)n2-c2ccccc2)CC1`, the log virus titer change was -0.33 (inactive).

As for `O=c1c2cc([N+](=O)[O-])ccc2nc(CN2CCCCC2)n1-c1ccccc1F`, the log virus titer change was -0.366 (inactive).

As to `O=c1c2cc([N+](=O)[O-])ccc2nc(CN2CCNCC2)n1-c1ccccc1F`, the log virus titer change was below -7.76.

With `CN1CCN(Cc2nc3ccc([N+](=O)[O-])cc3c(=O)n2-c2ccccc2F)CC1`, the log virus titer change is below -7.76.

On to `CCN1CCN(C)CC1=Nc1ccc([N+](=O)[O-])cc1C(=O)Nc1ccccc1`, for which the log virus titer change is below -7.2.

As to `CN1CCN(C)C(=Nc2ccc(C#N)cc2C(=O)Nc2ccccc2)C1`, the log virus titer change was -5.82.

Turning to `CN1CCN(C)C(=Nc2ccc(C#N)cc2C(=O)Nc2cccc(F)c2)C1`, the log virus titer change was -1.43.

Consider `CN1CCN(C)C(=Nc2ccc([N+](=O)[O-])cc2C(=O)Nc2ccccc2)C1`, for which the log virus titer change was below -7.2.

On to `CN1CCN(C)C(=Nc2ccc([N+](=O)[O-])cc2C(=O)Nc2ccccc2F)C1`, for which the log virus titer change is -3.8.
